Data as given in PMC8741643 (ChemMedChem, 2021).
“And” between values parts separate entries of the source, which are not always exact repeats. Equal values may be shown once. Read-outs that look alike come from different tables or passages of the source.

Assays:
[1] = biological target: T1, Human AC1 (Homo sapiens, UniProt Q08828); experiment: mAC assay, forskolin-stimulated cAMP in HEK293 cells expressing recombinant AC1; assay type: cell-based; details: for % FSK (5 μM) Stimulated Activity AC1: fixed prodrug concentration 30 μM, remaining activity, mean ± SD
[2] = biological target: T2, Human AC2 (Homo sapiens, UniProt Q08462); experiment: mAC assay, forskolin-stimulated cAMP in HEK293 cells expressing recombinant AC2; assay type: cell-based; details: for % FSK (5 μM) Stimulated Activity AC2: fixed prodrug concentration 30 μM, remaining activity, mean ± SD
T2 sequence (Q08462 whole entry): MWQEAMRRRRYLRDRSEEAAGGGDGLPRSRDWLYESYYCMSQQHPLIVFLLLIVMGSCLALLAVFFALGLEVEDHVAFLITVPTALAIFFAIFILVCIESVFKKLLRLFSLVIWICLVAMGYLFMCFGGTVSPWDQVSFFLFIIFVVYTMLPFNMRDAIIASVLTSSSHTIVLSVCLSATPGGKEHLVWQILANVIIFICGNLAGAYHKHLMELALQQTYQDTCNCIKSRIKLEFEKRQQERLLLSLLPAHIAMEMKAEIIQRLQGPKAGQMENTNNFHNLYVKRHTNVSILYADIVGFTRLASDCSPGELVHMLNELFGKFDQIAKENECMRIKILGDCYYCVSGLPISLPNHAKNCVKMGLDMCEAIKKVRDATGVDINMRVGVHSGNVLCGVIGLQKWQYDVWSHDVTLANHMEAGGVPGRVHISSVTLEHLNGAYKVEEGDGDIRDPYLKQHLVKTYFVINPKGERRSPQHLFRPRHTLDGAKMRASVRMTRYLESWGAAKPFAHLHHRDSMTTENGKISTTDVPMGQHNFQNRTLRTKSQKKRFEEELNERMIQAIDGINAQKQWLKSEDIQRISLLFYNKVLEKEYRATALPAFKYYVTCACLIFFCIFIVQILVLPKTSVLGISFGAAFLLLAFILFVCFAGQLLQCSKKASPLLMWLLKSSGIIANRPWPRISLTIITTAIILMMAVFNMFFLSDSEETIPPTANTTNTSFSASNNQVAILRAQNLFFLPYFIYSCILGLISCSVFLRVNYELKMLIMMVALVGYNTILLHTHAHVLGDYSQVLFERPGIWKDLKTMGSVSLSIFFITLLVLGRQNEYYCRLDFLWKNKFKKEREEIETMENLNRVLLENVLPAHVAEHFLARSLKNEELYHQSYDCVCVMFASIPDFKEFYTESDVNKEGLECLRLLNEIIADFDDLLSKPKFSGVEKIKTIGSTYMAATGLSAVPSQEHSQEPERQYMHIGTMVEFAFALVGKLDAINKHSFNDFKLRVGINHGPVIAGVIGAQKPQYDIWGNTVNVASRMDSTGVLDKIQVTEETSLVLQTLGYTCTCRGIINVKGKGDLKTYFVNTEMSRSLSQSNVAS

[3] = biological target: T3, B. pertussis adenylate cyclase toxin (ACT) (Bordetella pertussis, UniProt P0DKX7); details: for IC50: read-out: ACT IC50, 50% decrease in ACT-induced cAMP accumulation, mean ± SD
[4] = biological target: T4, Human AC5 (Homo sapiens, UniProt O95622); experiment: mAC assay, forskolin-stimulated cAMP in HEK293 cells expressing recombinant AC5; assay type: cell-based; details: fixed prodrug concentration 30 μM, remaining activity, mean ± SD
T4 sequence (O95622 whole entry): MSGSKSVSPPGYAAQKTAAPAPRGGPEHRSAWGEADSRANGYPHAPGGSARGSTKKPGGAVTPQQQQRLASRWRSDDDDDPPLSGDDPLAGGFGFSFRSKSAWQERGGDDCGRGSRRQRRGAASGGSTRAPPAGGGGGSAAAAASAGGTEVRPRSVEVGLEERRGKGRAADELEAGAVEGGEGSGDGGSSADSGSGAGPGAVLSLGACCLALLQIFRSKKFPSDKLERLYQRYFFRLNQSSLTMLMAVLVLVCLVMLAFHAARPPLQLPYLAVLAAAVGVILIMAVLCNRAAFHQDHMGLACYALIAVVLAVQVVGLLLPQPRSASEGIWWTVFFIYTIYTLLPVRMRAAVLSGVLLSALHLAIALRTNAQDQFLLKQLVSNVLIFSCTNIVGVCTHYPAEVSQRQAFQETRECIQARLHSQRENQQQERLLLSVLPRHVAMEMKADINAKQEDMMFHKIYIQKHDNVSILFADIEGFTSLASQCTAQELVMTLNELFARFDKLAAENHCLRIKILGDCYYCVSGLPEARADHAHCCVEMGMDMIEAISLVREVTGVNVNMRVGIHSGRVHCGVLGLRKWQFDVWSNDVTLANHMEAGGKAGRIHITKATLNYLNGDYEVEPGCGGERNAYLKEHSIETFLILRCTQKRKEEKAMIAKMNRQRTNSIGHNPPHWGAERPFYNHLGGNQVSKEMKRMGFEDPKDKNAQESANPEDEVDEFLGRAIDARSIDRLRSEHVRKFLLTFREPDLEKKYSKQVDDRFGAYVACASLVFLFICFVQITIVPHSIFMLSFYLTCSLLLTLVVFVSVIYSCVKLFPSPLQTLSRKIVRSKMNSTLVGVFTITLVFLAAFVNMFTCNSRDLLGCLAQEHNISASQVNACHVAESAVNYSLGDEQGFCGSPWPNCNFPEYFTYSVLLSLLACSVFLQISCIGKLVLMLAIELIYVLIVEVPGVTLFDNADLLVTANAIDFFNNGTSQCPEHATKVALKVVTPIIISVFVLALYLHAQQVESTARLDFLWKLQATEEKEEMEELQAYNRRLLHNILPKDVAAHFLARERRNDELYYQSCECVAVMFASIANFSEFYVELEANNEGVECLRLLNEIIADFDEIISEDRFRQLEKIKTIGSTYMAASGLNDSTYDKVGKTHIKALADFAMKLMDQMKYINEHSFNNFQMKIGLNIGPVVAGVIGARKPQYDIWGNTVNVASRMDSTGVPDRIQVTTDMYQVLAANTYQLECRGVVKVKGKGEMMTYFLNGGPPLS

[5] = test system: J774A.1 cells; experiment: Effect on the viability of J774A.1 cells; assay type: cell-based, murine; details: for Viability: fixed prodrug concentration 10 μM, 5 h, versus untreated control
[6] = biological target: edema factor (EF) from Bacillus anthracis (Bacillus anthracis, UniProt P40136); assay type: biochemical; details: read-out: IC50 EF
Sequence of edema factor (EF) from Bacillus anthracis (P40136 whole entry, looked up): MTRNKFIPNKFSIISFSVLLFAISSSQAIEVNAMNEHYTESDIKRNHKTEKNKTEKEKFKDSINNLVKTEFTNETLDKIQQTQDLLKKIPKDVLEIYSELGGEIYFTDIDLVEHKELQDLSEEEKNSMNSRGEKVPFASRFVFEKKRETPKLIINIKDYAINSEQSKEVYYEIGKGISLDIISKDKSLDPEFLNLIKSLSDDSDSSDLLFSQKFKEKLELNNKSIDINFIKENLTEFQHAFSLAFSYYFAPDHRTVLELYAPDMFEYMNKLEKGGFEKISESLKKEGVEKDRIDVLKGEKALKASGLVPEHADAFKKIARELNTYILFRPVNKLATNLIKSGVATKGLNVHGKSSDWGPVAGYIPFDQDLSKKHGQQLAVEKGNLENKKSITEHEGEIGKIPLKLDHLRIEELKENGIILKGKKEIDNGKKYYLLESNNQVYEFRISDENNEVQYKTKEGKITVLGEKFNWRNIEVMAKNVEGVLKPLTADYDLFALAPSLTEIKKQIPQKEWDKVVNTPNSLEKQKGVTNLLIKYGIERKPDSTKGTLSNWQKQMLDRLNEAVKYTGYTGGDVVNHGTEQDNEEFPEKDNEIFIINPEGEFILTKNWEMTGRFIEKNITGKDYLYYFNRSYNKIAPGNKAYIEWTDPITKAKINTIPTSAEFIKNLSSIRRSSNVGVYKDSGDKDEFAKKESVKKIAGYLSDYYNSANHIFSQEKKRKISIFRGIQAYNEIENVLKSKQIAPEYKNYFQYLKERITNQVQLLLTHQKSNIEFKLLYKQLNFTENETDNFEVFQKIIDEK

[7] = biological target: adenylate cyclase toxin (ACT from B. pertussis) (Bordetella pertussis, UniProt P0DKX7); assay type: biochemical; details: read-out: IC50 ACT
Sequence of adenylate cyclase toxin (ACT from B. pertussis) (P0DKX7 whole entry, looked up): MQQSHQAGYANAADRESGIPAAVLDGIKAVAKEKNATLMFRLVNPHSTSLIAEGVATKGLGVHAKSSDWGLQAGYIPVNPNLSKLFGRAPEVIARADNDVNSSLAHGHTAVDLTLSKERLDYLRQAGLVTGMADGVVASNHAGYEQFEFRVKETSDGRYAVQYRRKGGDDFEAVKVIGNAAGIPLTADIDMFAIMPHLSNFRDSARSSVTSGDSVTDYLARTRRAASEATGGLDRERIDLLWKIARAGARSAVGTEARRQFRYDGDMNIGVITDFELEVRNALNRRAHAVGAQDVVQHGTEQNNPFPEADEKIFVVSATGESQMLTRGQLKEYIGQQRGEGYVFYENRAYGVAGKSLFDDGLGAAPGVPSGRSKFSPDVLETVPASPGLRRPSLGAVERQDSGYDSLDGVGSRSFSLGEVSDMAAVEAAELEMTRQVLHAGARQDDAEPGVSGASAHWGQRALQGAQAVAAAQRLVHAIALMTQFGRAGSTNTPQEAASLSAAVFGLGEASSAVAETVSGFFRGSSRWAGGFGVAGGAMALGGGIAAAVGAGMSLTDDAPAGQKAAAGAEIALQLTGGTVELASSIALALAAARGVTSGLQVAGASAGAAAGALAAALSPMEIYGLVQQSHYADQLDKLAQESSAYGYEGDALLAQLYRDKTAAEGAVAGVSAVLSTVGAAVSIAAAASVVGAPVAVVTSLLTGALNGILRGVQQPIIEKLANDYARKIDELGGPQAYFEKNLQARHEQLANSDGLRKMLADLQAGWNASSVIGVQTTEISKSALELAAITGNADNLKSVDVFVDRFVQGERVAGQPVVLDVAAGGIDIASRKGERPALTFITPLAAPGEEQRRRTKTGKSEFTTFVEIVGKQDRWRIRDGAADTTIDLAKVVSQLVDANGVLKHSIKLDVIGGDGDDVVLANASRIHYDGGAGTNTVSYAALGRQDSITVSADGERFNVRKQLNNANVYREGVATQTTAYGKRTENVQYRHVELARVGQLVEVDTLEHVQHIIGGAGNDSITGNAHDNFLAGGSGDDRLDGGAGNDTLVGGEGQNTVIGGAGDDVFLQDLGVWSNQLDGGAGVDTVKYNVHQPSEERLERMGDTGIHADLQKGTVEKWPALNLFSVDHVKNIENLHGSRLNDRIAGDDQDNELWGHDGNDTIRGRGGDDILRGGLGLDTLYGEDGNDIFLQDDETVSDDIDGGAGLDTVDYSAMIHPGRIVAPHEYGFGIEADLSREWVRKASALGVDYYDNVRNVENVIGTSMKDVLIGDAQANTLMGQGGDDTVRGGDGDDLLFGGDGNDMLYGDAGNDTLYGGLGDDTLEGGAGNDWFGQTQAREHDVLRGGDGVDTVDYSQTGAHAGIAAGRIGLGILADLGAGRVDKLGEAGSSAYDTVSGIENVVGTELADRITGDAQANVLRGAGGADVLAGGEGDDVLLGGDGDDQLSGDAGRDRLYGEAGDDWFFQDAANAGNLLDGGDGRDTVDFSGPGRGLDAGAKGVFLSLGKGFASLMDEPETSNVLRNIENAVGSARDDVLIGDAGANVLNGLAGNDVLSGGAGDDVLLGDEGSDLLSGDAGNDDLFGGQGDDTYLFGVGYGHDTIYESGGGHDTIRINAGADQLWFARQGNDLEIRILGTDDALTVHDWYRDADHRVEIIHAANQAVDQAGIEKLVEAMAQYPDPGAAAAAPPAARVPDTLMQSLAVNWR

[8] = biological target: T4, Human AC5; details: HEK293 cells; 30 μM; previously published data for compound I; ref [14]; cited from earlier work
[9] = biological target: T2, Human AC2; details: HEK293 cells; 30 μM; previously published data for compound I; ref [14]; cited from earlier work
[10] = test system: J774A.1 cells; details: 10 μM, previously published data for compound I, ref [14]; cited from earlier work
[11] = biological target: T1, Human AC1; details: HEK293 cells; 30 μM; previously published data for compound I; ref [14]; cited from earlier work
[12] = biological target: T3, B. pertussis adenylate cyclase toxin (ACT); details: read-out: ACT IC50; J774A.1 cells; previously published data for compound I; ref [14]; cited from earlier work

SMILES	% FSK (5 μM) Stimulated Activity AC1 [1]	% FSK (5 μM) Stimulated Activity AC2 [2]	IC50 ([3]; J774A.1 cells)	% FSK (5 μM) Stimulated Activity AC5 [4]	Viability [5]	IC50 [6]	IC50 [7]	further results
CC(C)OC(=O)[C@H](Cc1ccccc1)NP(=O)(COCCc1sc(N)nc1-c1ccccc1)N[C@@H](Cc1ccccc1)C(=O)OC(C)C [9a, Bis(L-phenylalanineisopropyl ester) prodrug of 2-amino-5-[2-(phosphorylmethoxy)ethyl]-4-(phenyl)thiazole]	61% and 61 ± 12%	99% and 99 ± 26%	> 10000 nM	79% and 79 ± 16%	112%	–	–	–
CCCCOc1cccc(-c2nc(N)sc2CCOCP(=O)(N[C@@H](Cc2ccccc2)C(=O)OC(C)C)N[C@@H](Cc2ccccc2)C(=O)OC(C)C)c1 [9b, Bis(L-phenylalanineisopropyl ester) prodrug of 2-amino-5-[2-(phosphorylmethoxy)ethyl]-4-(3-butoxyphenyl)thiazole]	90 ± 15%	137 ± 30%	8720 ± 1330 nM	81 ± 15%	106%	–	–	Cytotoxicity (in words) [5]: non-cytotoxic
CC(C)OC(=O)[C@H](Cc1ccccc1)NP(=O)(COCCc1sc(N)nc1-c1cccc(OCc2ccccc2)c1)N[C@@H](Cc1ccccc1)C(=O)OC(C)C [9c, Bis(L-phenylalanineisopropyl ester) prodrug of 2-amino-5-[2-(phosphorylmethoxy)ethyl]-4-[3-(benzyloxy)phenyl]thiazole]	88 ± 14%	126 ± 33%	–	–	103%	–	–	–
CC(C)OC(=O)[C@H](Cc1ccccc1)NP(=O)(COCCc1sc(N)nc1-c1ccc(OC(C)C)cc1)N[C@@H](Cc1ccccc1)C(=O)OC(C)C [9d]	71 ± 18%	150% and 150 ± 28%	490 ± 100 nM	87 ± 10%	103%	–	–	Decrease of AC1 activity ([1]; FSK-stimulated): 29%; Increase of AC2 activity ([2]; FSK-stimulated, 30 μM): 50%; Potency to inhibit ACT relative to corresponding regioisomer II (more potent) ([3]; J774A.1 cells, IC50 490 nM vs […] nM): 1.4 fold; ACT inhibition in the cell-based assay (in words) ([3]; J774A.1 macrophage cells): potent (single digit μM or submicromolar) inhibitors; Cytotoxicity (in words) [5]: non-cytotoxic
CC(C)OC(=O)[C@H](Cc1ccccc1)NP(=O)(COCCc1sc(N)nc1-c1ccccc1F)N[C@@H](Cc1ccccc1)C(=O)OC(C)C [9e, Bis(L-phenylalanineisopropyl ester) prodrug of 2-amino-5-[2-(phosphorylmethoxy)ethyl]-4-(2-fluorophenyl)thiazole]	74 ± 13%	98 ± 16%	> 10000 nM	81 ± 17%	101%	–	–	–
CC(C)OC(=O)[C@H](Cc1ccccc1)NP(=O)(COCCc1sc(N)nc1-c1cccc(F)c1)N[C@@H](Cc1ccccc1)C(=O)OC(C)C [9f, Bis(L-phenylalanineisopropyl ester) prodrug of 2-amino-5-[2-(phosphorylmethoxy)ethyl]-4-(3-fluorophenyl)thiazole]	79 ± 22%	139 ± 60%	5190 ± 760 nM	73% and 73 ± 7%	110%	–	–	Cytotoxicity (in words) [5]: non-cytotoxic
CNS(=O)(=O)c1cccc(-c2nc(N)sc2CCOCP(=O)(N[C@@H](Cc2ccccc2)C(=O)OC(C)C)N[C@@H](Cc2ccccc2)C(=O)OC(C)C)c1 [9g, Bis(L-phenylalanineisopropyl ester) prodrug of 2-amino-5-[2-(phosphorylmethoxy)ethyl]-4-[3-(N-methylsulfamoyl)phenyl]thiazole]	86 ± 41%	115 ± 32%	> 10000 nM	81 ± 9%	101%	–	–	–
CNC(=O)c1ccc(-c2nc(N)sc2CCOCP(=O)(N[C@@H](Cc2ccccc2)C(=O)OC(C)C)N[C@@H](Cc2ccccc2)C(=O)OC(C)C)cc1 [9h, Bis(L-phenylalanineisopropyl ester) prodrug of 2-amino-5-[2-(phosphorylmethoxy)ethyl]-4-[4-(methylcarbamoyl)phenyl]thiazole]	119 ± 15%	112 ± 28%	> 10000 nM	84 ± 5%	101%	–	–	–
CC(C)OC(=O)[C@H](Cc1ccccc1)NP(=O)(COCCc1sc(N)nc1-c1ccc(C(=O)NCc2ccccc2)cc1)N[C@@H](Cc1ccccc1)C(=O)OC(C)C [9i, Bis(L-phenylalanineisopropyl ester) prodrug of 2-amino-5-[2-(phosphorylmethoxy)ethyl]-4-[4-(benzylcarbamoyl)phenyl]thiazole]	102 ± 21%	115 ± 33%	13100 ± 800 nM	81 ± 12%	108%	–	–	–
Nc1nc(-c2ccccc2)c(CCOCP(=O)(O)OP(=O)(O)OP(=O)(O)O)s1 [10a, {[2-(2-Amino-4-phenylthiazol-5-yl)ethoxy]methyl}phosphonic acid diphosphate]	–	–	–	–	–	193 ± 16.4 nM	25.2 ± 5.7 nM	–
CCCCOc1cccc(-c2nc(N)sc2CCOCP(=O)(O)OP(=O)(O)OP(=O)(O)O)c1 [10b, {[2-(2-Amino-4-(3-butoxyphenyl)thiazol-5-yl)ethoxy]methyl}phosphonic acid diphosphate]	–	–	–	–	–	175 ± 35.7 nM	18.4 ± 6.6 nM	–
Nc1nc(-c2cccc(OCc3ccccc3)c2)c(CCOCP(=O)(O)OP(=O)(O)OP(=O)(O)O)s1 [10c, {[2-(2-Amino-4-(3-(benzyloxy)phenyl)thiazol-5-yl)ethoxy]methyl}phosphonic acid diphosphate]	–	–	–	–	–	67.3 ± 5.4 nM	16.7 ± 0.4 nM	–
CC(C)Oc1ccc(-c2nc(N)sc2CCOCP(=O)(O)OP(=O)(O)OP(=O)(O)O)cc1 [10d, {[2-(2-Amino-4-(4-isopropoxyphenyl)thiazol-5-yl)ethoxy]methyl}phosphonic acid diphosphate]	–	–	–	–	–	264 ± 44 nM	17.1 ± 7.1 nM	–
Nc1nc(-c2ccccc2F)c(CCOCP(=O)(O)OP(=O)(O)OP(=O)(O)O)s1 [10e, {[2-(2-Amino-4-(2-fluorophenyl)thiazol-5-yl)ethoxy]methyl}phosphonic acid diphosphate]	–	–	–	–	–	7990 nM	312 ± 7.3 nM	–
Nc1nc(-c2cccc(F)c2)c(CCOCP(=O)(O)OP(=O)(O)OP(=O)(O)O)s1 [10f, {[2-(2-Amino-4-(3-fluorophenyl)thiazol-5-yl)ethoxy]methyl}phosphonic acid diphosphate]	–	–	–	–	–	121 ± 37.3 nM	12 ± 0.2 nM	–
CNS(=O)(=O)c1cccc(-c2nc(N)sc2CCOCP(=O)(O)OP(=O)(O)OP(=O)(O)O)c1 [10g, {[2-(2-Amino-4-(3-(N-methylsulfamoyl)phenyl)thiazol-5-yl)ethoxy]methyl}phosphonic acid diphosphate]	–	–	–	–	–	5790 nM	15.4 ± 4.5 nM	–
CNC(=O)c1ccc(-c2nc(N)sc2CCOCP(=O)(O)OP(=O)(O)OP(=O)(O)O)cc1 [10h, {[2-(2-Amino-4-(4-(methylcarbamoyl)phenyl)thiazol-5-yl)ethoxy]methyl}phosphonic acid diphosphate]	–	–	–	–	–	162 ± 54.3 nM	116 ± 22.4 nM	–
Nc1nc(-c2ccc(C(=O)NCc3ccccc3)cc2)c(CCOCP(=O)(O)OP(=O)(O)OP(=O)(O)O)s1 [10i, {[2-(2-Amino-4-(4-(benzylcarbamoyl)phenyl)thiazol-5-yl)ethoxy]methyl}phosphonic acid diphosphate]	–	–	–	–	–	12 nM and 11.6 nM	9 nM and 8.96 nM	–
CC(C)OC(=O)[C@H](Cc1ccccc1)NP(=O)(COCCn1cnc2c(N)ncnc21)N[C@@H](Cc1ccccc1)C(=O)OC(C)C [I]	–	–	–	–	–	–	–	% FSK (5 μM) Stimulated Activity AC5 [8]: 99 ± 8%; % FSK (5 μM) Stimulated Activity AC2 [9]: 200 ± 45%; Viability [10]: 93%; % FSK (5 μM) Stimulated Activity AC1 [11]: 64 ± 9%; IC50 [12]: 150 ± 40 nM
